From ChEMBL document CHEMBL4825675, “Longipetalol A: A Highly Modified Triterpenoid from Dichapetalum longipetalum” (J Nat Prod, 2021)

Test system: RAW264.7
Experiment: Antiinflammatory activity in mouse RAW264.7 cells assessed as inhibition of LPS-induced NO production incubated for 24 hrs in presence of LPS by Griess reagent-based assay
Type: functional, cell-based
Settings: RAW264.7, 24 h

IC50 | Compound
11.4 µM | C/C(=C\[C@H]1C[C@@](O)([C@@H]2CC[C@]34C[C@]23C=CC2[C@]3(C)C(CC(=O)[C@]24C)C(C)(C)[C@@]2(CC(=O)c4ccccc4)O[C@@H]3OC2=O)C(=O)O1)CO (some centres undefined)
3.5 µM | C/C(=C\[C@H]1C[C@@](O)([C@@H]2CC[C@]34C[C@]23C=CC2[C@@]3(C)CC(=O)/C(=C\C(=O)c5ccccc5)C(C)(C)[C@@H]3CC(=O)[C@]24C)C(=O)O1)CO (some centres undefined)
6.9 µM | C[C@@H]1C[C@H]2[C@@H]3CCC4=CC(=O)C=C[C@]4(C)[C@@]3(F)[C@@H](O)C[C@]2(C)[C@@]1(O)C(=O)CO [DEXAMETHASONE]
1.6 µM | C/C(=C\[C@H]1C[C@@](O)([C@@H]2CC[C@]34C[C@]23C=CC2[C@@]4(C)[C@H](O)C[C@H]3C(C)(C)/C(=C/C(=O)c4ccccc4)C(=O)C[C@]23C)C(=O)O1)CO (some centres undefined)
